Source: patent publication US12691111B2, “SETD2 inhibitors and related methods and uses, including combination therapies” (EPIZYME, INC., priority 2020, dated 2026)

Experiments:
KARPAS422 = experiment: Pre-treatment model combination study (4 days pre-treatment, 3 days co-treatment), CellTiter-Glo, Loewe Volume; type: cell-based; details: KARPAS422 diffuse large B-cell lymphoma cells, 4 days Cpd. No. 15 pre-treatment then 3 days co-treatment
Method: (§1) Diffuse large B-cell lymphoma cells were seeded into flasks and pre-treated with several concentrations of Cpd. No. 15 or DMSO. Cells were then split adjusted to initial density, replated and co-treated Cpd. No. 15 and a second agent of interest using the HP D300 digital dispenser (Tecan Group, Mannedorf, Switzerland) in tissue culture treated solid white 384-well plates for additional 3 days. […] After 3 days cotreatment, cell viability was measured via ATP content using CellTiter-Glo® (Promega, Madison, WI) and luminescence was detected using a SpectraMax M5 microplate reader (Molecular Devices, Sunnyvale, CA).
(§2) Diffuse large B-cell lymphoma (DLBCL) cell line cultures in log-linear growth rate were treated with combinations of Cpd. No. 15 and combination partners according to a pre-treatment model. Cells were seeded first into 8 flasks and pre-treated with 7 different concentrations of Cpd. […] Cells were harvested from each flask and re-seeded onto the corresponding 384-well plate with the same concentration of Cpd. No. 15. and 9 concentrations of its combination partner in triplicate wells. The final concentration of DMSO (vehicle) in the assay was 0.1% v/v. Fifty microliters of cell line(s) suspension were directly dispensed to the assay-ready plates with an automated multichannel dispenser on to 384-well assay-ready plates. Assay plates were incubated for three days in a humidified atmosphere of 5% CO2 at 37° C. Quantification of the effect of single agents or combinations on cell viability was performed through measurement of cellular adenosine triphosphate (ATP) using CellTiter-Glo® (Promega, Madison, WI). Luminescence was detected using a SpectraMax M5 microplate reader (Molecular Devices, Sunnyvale, CA). Concentration response plots were generated in GraphPad Prism version 8.0 for Windows, GraphPad Software, (La Jolla, CA) and curves fitted to a four-parameter logistic model with variable slope. Percent of inhibition was calculated at each treatment concentration.

SUDHL-6 = experiment: as above; type: cell-based; details: SUDHL-6 diffuse large B-cell lymphoma cells, 4 days Cpd. No. 15 pre-treatment then 3 days co-treatment
Method: as §1, §2

WSUDLCL2 = experiment: as above; type: cell-based; details: WSUDLCL2 diffuse large B-cell lymphoma cells, 4 days Cpd. No. 15 pre-treatment then 3 days co-treatment
Method: as §1, §2

SUDHL-2 = experiment: as above; type: cell-based; details: SUDHL-2 diffuse large B-cell lymphoma cells, 4 days Cpd. No. 15 pre-treatment then 3 days co-treatment
Method: as §1, §2

RPMI-8226 = experiment: 7-day co-treatment combination study, CellTiter-Glo, Loewe Volume; type: cell-based; details: RPMI-8226 multiple myeloma cells, 7-day co-treatment with Cpd. No. 15
Method: (§3) Multiple myeloma (MM) and mantle cell lymphoma (MCL) Cell line cultures in log-linear growth rate were treated with combinations of Cpd. No. 15 and combination partners according to a co-treatment model. […] No. 15 and the combination partner. […] Each combination was tested in quadruplicate wells. The final concentration of DMSO (vehicle) in the assay was 0.1% v/v. Fifty microliters of cell line suspension were directly dispensed to the assay-ready plates with an automated multichannel dispenser on to 384-well assay-ready plates. Assay plates were incubated for seven days in a humidified atmosphere of 5% CO2 at 37° C. Quantification of the effect of single agents or combinations on cell viability was performed through measurement of cellular adenosine triphosphate (ATP) using a CellTiter-Glo® (Promega, MadisonWIs.) Luminescent Cell Viability Assay. Luminescence was detected using a SpectraMax M5 microplate reader (Molecular Devices, Sunnyvale, CA). Concentration response plots were generated in GraphPad Prism version 7.0 for Windows, GraphPad Software, (La Jolla, CA) and curves fitted to a four-parameter logistic model with variable slope. Percent of inhibition was calculated at each treatment concentration.
(§4) The results of these combinations are summarized in Tables A and B (multiple myeloma cell lines), and Tables C and D (mantle cell lymphoma cell lines).

JEKO1 = experiment: as above; type: cell-based; details: JEKO1 mantle cell lymphoma cells, 7-day co-treatment with Cpd. No. 15
Method: as §3, §4

Z138 = experiment: as above; type: cell-based; details: Z138 mantle cell lymphoma cells, 7-day co-treatment with Cpd. No. 15
Method: as §3, §4

L363 = experiment: as above; type: cell-based; details: L363 multiple myeloma cells, 7-day co-treatment with Cpd. No. 15
Method: as §3, §4

KMS-28-BM = experiment: as above; type: cell-based; details: KMS-28-BM multiple myeloma cells, 7-day co-treatment with Cpd. No. 15
Method: as §3, §4

REC1 = experiment: as above; type: cell-based; details: REC1 mantle cell lymphoma cells, 7-day co-treatment with Cpd. No. 15
Method: as §3, §4

GRANTA519 = experiment: as above; type: cell-based; details: GRANTA519 mantle cell lymphoma cells, 7-day co-treatment with Cpd. No. 15
Method: as §3, §4

NCI-H929 = experiment: as above; type: cell-based; details: NCI-H929 multiple myeloma cells, 7-day co-treatment with Cpd. No. 15
Method: as §3, §4

MM1.S = experiment: as above; type: cell-based; details: MM1.S multiple myeloma cells, 7-day co-treatment with Cpd. No. 15
Method: as §3, §4

JVM2 = experiment: as above; type: cell-based; details: JVM2 mantle cell lymphoma cells, 7-day co-treatment with Cpd. No. 15
Method: as §3, §4

KMS34 = experiment: as above; type: cell-based; details: KMS34 multiple myeloma cells, 7-day co-treatment with Cpd. No. 15
Method: as §3, §4

MAVER1 = experiment: as above; type: cell-based; details: MAVER1 mantle cell lymphoma cells, 7-day co-treatment with Cpd. No. 15
Method: as §3, §4

MINO = experiment: as above; type: cell-based; details: MINO mantle cell lymphoma cells, 7-day co-treatment with Cpd. No. 15
Method: as §3, §4

KMS-11 = experiment: as above; details: KMS-11 multiple myeloma cells, 7-day co-treatment with Cpd. No. 15

SMILES: CC1(C)CCC(CN2CCN(c3ccc(C(=O)NS(=O)(=O)c4ccc(NCC5CCOCC5)c([N+](=O)[O-])c4)c(Oc4cnc5[nH]ccc5c4)c3)CC2)=C(c2ccc(Cl)cc2)C1 [Venetoclax, venetoclax]
- Combination effect (Loewe Volume class) of Cpd. No. 15 with combination partner (KARPAS422): No effect
- Combination effect (Loewe Volume class) of Cpd. No. 15 with combination partner (SUDHL-6): Synergy (VLoewe>1: synergy)
- Combination effect (Loewe Volume class) of Cpd. No. 15 with combination partner (WSUDLCL2): Synergy (VLoewe>1: synergy)
- Combination effect (Loewe Volume class) of Cpd. No. 15 with combination partner (SUDHL-2): Synergy (VLoewe>1: synergy)
- Combination effect (Loewe Volume class) of Cpd. No. 15 with combination partner (RPMI-8226): Additivity (between 1 and −1: additivity)
- Combination effect (Loewe Volume class) of Cpd. No. 15 with combination partner (JEKO1): Additivity (between 1 and −1: additivity)
- Combination effect (Loewe Volume class) of Cpd. No. 15 with combination partner (Z138): Synergy (VLoewe>1: synergy)
- Combination effect (Loewe Volume class) of Cpd. No. 15 with combination partner (L363): Additivity (between 1 and −1: additivity)
- Combination effect (Loewe Volume class) of Cpd. No. 15 with combination partner (KMS-28-BM): Additivity (between 1 and −1: additivity)
- Combination effect (Loewe Volume class) of Cpd. No. 15 with combination partner (REC1): Additivity (between 1 and −1: additivity)
- Combination effect (Loewe Volume class) of Cpd. No. 15 with combination partner (GRANTA519): Synergy (VLoewe>1: synergy)
- Combination effect (Loewe Volume class) of Cpd. No. 15 with combination partner (NCI-H929): Synergy (VLoewe>1: synergy)
- Combination effect (Loewe Volume class) of Cpd. No. 15 with combination partner (MM1.S): Additivity (between 1 and −1: additivity)
- Combination effect (Loewe Volume class) of Cpd. No. 15 with combination partner (JVM2): Synergy (VLoewe>1: synergy)
- Combination effect (Loewe Volume class) of Cpd. No. 15 with combination partner (KMS34): Additivity (between 1 and −1: additivity)
- Combination effect (Loewe Volume class) of Cpd. No. 15 with combination partner (MAVER1): Synergy (VLoewe>1: synergy)
- Combination effect (Loewe Volume class) of Cpd. No. 15 with combination partner (MINO): Additivity (between 1 and −1: additivity)
- Combination effect (Loewe Volume class) of Cpd. No. 15 with combination partner (KMS-11): Synergy (VLoewe>1: synergy)
